From PMC9516332 (Frontiers in Oncology, 2022)
Where two headings read alike, the source gives them in different places.

Tests used:
AP-1060 (ETV6-NTRK3) = test: Cell viability assay; details: read-out: IC50 in cell proliferation assay
134 cancer cell lines = test: Cell viability assay (ATPlite, 72 hours), IC50 on cancer cell line panel

IC50 (134 cancer cell lines; HEC-6, read-out: IC50 in cell proliferation assay, HEC-6 cell line (EGFR p.A289V)): > 31.6 µM | IC50 (134 cancer cell lines; Homo sapiens, 769-P, read-out: IC50 in cell proliferation assay, cell line 769-P): 31.1 µM | IC50 (134 cancer cell lines; Homo sapiens, 786-0, read-out: IC50 in cell proliferation assay, cell line 786-O): 14.2 µM | IC50 (134 cancer cell lines; Homo sapiens, A 172, read-out: IC50 in cell proliferation assay, cell line A-172): > 31.6 µM | IC50 (134 cancer cell lines; Homo sapiens, A204, read-out: IC50 in cell proliferation assay, cell line A-204): 1.19 µM | IC50 (134 cancer cell lines; Homo sapiens, A498, read-out: IC50 in cell proliferation assay, cell line A-498): 3.39 µM | IC50 (134 cancer cell lines; Homo sapiens, A549, read-out: IC50 in cell proliferation assay, cell line A-549): 23.9 µM | IC50 (134 cancer cell lines; Homo sapiens, A704, read-out: IC50 in cell proliferation assay, cell line A-704): > 31.6 µM | IC50 (134 cancer cell lines; Homo sapiens, A-375, read-out: IC50 in cell proliferation assay, cell line A-375 (BRAF p.V600E)): 23.4 µM | IC50 (134 cancer cell lines; Homo sapiens, A-427, read-out: IC50 in cell proliferation assay, cell line A-427): 14.9 µM | IC50 (134 cancer cell lines; Homo sapiens, ACHN, read-out: IC50 in cell proliferation assay, cell line ACHN): 7.17 µM | IC50 (134 cancer cell lines; Homo sapiens, AN3-CA, read-out: IC50 in cell proliferation assay, cell line AN3-CA (FGFR2 p.N549K)): 4.2 µM | IC50 (134 cancer cell lines; Homo sapiens, ASPC1, read-out: IC50 in cell proliferation assay, cell line AsPC-1): > 31.6 µM | IC50 (134 cancer cell lines; Homo sapiens, AU565, read-out: IC50 in cell proliferation assay, cell line AU565 (ERBB2 amplification)): 7.67 µM | IC50 (134 cancer cell lines; Homo sapiens, BT-20, read-out: IC50 in cell proliferation assay, cell line BT-20): 30 µM | IC50 (134 cancer cell lines; Homo sapiens, BT-474, read-out: IC50 in cell proliferation assay, cell line BT-474 (ERBB2 amplification)): 9.09 µM | IC50 (134 cancer cell lines; Homo sapiens, BT-549, read-out: IC50 in cell proliferation assay, cell line BT-549): 0.348 µM | IC50 (134 cancer cell lines; Homo sapiens, BXPC-3, read-out: IC50 in cell proliferation assay, cell line BxPC-3): 16.6 µM | IC50 (134 cancer cell lines; Homo sapiens, C-33-A, read-out: IC50 in cell proliferation assay, cell line C-33 A): 9.87 µM | IC50 (134 cancer cell lines; Homo sapiens, CAL-27, read-out: IC50 in cell proliferation assay, cell line CAL-27): 8.89 µM | IC50 (134 cancer cell lines; Homo sapiens, CCF-STTG1, read-out: IC50 in cell proliferation assay, cell line CCF-STTG1): > 31.6 µM | IC50 (134 cancer cell lines; Homo sapiens, CCRF-CEM, read-out: IC50 in cell proliferation assay, cell line CCRF-CEM): 0.916 µM | IC50 (134 cancer cell lines; Homo sapiens, COLO 205, read-out: IC50 in cell proliferation assay, cell line COLO 205 (BRAF p.V600E)): 20.5 µM | IC50 (134 cancer cell lines; Homo sapiens, COLO-829, read-out: IC50 in cell proliferation assay, cell line COLO 829 (BRAF p.V600E)): > 31.6 µM | IC50 (134 cancer cell lines; Homo sapiens, DLD-1, read-out: IC50 in cell proliferation assay, cell line DLD-1): 18.5 µM | IC50 (134 cancer cell lines; Homo sapiens, DU-4475, read-out: IC50 in cell proliferation assay, cell line DU4475 (BRAF p.V600E)): > 31.6 µM | IC50 (134 cancer cell lines; Homo sapiens, Daoy, read-out: IC50 in cell proliferation assay, cell line Daoy): 12.1 µM | IC50 (134 cancer cell lines; Homo sapiens, DoTc2-4510, read-out: IC50 in cell proliferation assay, cell line DoTc2 4510): 8.98 µM | IC50 (134 cancer cell lines; Homo sapiens, EOL1, read-out: IC50 in cell proliferation assay, cell line EoL-1 (FIP1L1-PDGFRA)): 0.033 µM | IC50 (134 cancer cell lines; Homo sapiens, FaDu, read-out: IC50 in cell proliferation assay, cell line FaDu): 18.7 µM | IC50 (134 cancer cell lines; Homo sapiens, G-361, read-out: IC50 in cell proliferation assay, cell line G-361 (BRAF p.V600E)): 22.1 µM | IC50 (134 cancer cell lines; Homo sapiens, HCC827, read-out: IC50 in cell proliferation assay, cell line HCC827 (EGFR exon19del)): 2.18 µM | IC50 (134 cancer cell lines; Homo sapiens, HCC4006, read-out: IC50 in cell proliferation assay, cell line HCC4006 (EGFR exon19del)): 26 µM | IC50 (134 cancer cell lines; Homo sapiens, HCT-15, read-out: IC50 in cell proliferation assay, cell line HCT 15): > 31.6 µM | IC50 (134 cancer cell lines; Homo sapiens, HCT-116, read-out: IC50 in cell proliferation assay, cell line HCT 116): 27.6 µM | IC50 (134 cancer cell lines; Homo sapiens, HEC-1, read-out: IC50 in cell proliferation assay, HEC-1 cell line): 11.2 µM | IC50 (134 cancer cell lines; Homo sapiens, HEC-1B, read-out: IC50 in cell proliferation assay, HEC-1-B cell line (EGFR p.A864V)): 4.51 µM | IC50 (134 cancer cell lines; Homo sapiens, HL-60, read-out: IC50 in cell proliferation assay, HL-60 cell line): 4.97 µM | IC50 (134 cancer cell lines; Homo sapiens, HT, read-out: IC50 in cell proliferation assay, HT cell line): 4.63 µM | IC50 (134 cancer cell lines; Homo sapiens, HT-1080, read-out: IC50 in cell proliferation assay, HT-1080 cell line): 3.97 µM | IC50 (134 cancer cell lines; Homo sapiens, Hs746T, read-out: IC50 in cell proliferation assay, Hs 746.T cell line (MET exon14skip + amplification)): 4.43 µM | IC50 (134 cancer cell lines; Homo sapiens, Hs-578T, read-out: IC50 in cell proliferation assay, Hs 578T cell line): 2.62 µM | IC50 (134 cancer cell lines; Homo sapiens, HuTu80, read-out: IC50 in cell proliferation assay, HuTu 80 cell line): 15 µM | IC50 (134 cancer cell lines; Homo sapiens, J82, read-out: IC50 in cell proliferation assay, J82 cell line): 23.8 µM | IC50 (134 cancer cell lines; Homo sapiens, Jurkat E6.1, read-out: IC50 in cell proliferation assay, Jurkat E6.1 cell line): 6.94 µM | IC50 (134 cancer cell lines; Homo sapiens, K562, read-out: IC50 in cell proliferation assay, K-562 cell line): 12.3 µM | IC50 (134 cancer cell lines; Homo sapiens, KATO III, read-out: IC50 in cell proliferation assay, KATO III cell line (FGFR2 amplification)): 23.1 µM | IC50 (134 cancer cell lines; Homo sapiens, KG-1, read-out: IC50 in cell proliferation assay, KG-1 cell line (FGFR1OP2-FGFR1)): > 31.6 µM | IC50 (134 cancer cell lines; Homo sapiens, KLE, read-out: IC50 in cell proliferation assay, KLE cell line): 4.37 µM | IC50 (134 cancer cell lines; Homo sapiens, KMS-11, read-out: IC50 in cell proliferation assay, KMS-11 cell line (FGFR3 p.Y373C)): 11.4 µM | IC50 (134 cancer cell lines; Homo sapiens, KU812, read-out: IC50 in cell proliferation assay, Ku812 cell line): 12.8 µM | IC50 (134 cancer cell lines; Homo sapiens, Kasumi 1, read-out: IC50 in cell proliferation assay, Kasumi-1 cell line (KIT p.N822K)): 5.79 µM | IC50 (134 cancer cell lines; Homo sapiens, LC-2-ad, read-out: IC50 in cell proliferation assay, LC-2/ad cell line (CCDC6-RET)): 0.095 µM | IC50 (134 cancer cell lines; Homo sapiens, LNCaP-Clone-FGC, read-out: IC50 in cell proliferation assay, LNCaP clone FGC cell line): 0.119 µM | IC50 (134 cancer cell lines; Homo sapiens, LS174T, read-out: IC50 in cell proliferation assay, LS174T cell line): 31.2 µM | IC50 (134 cancer cell lines; Homo sapiens, LS-411N, read-out: IC50 in cell proliferation assay, LS411N cell line (BRAF p.V600E)): 26.3 µM | IC50 (134 cancer cell lines; Homo sapiens, LoVo, read-out: IC50 in cell proliferation assay, LoVo cell line): 9.26 µM | IC50 (134 cancer cell lines; Homo sapiens, MCF7, read-out: IC50 in cell proliferation assay, MCF-7 cell line): 11.8 µM | IC50 (134 cancer cell lines; Homo sapiens, MDA-MB-231, read-out: IC50 in cell proliferation assay, MDA-MB-231 cell line): > 31.6 µM | IC50 (134 cancer cell lines; Homo sapiens, MDA-MB-453, read-out: IC50 in cell proliferation assay, MDA-MB-453 cell line): > 31.6 µM | IC50 (134 cancer cell lines; Homo sapiens, MDA-MB-468, read-out: IC50 in cell proliferation assay, MDA-MB-468 cell line): 1.3 µM | IC50 (134 cancer cell lines; Homo sapiens, MG-63, read-out: IC50 in cell proliferation assay, MG-63 cell line): 7.8 µM | IC50 (134 cancer cell lines; Homo sapiens, MIA PaCa-2, read-out: IC50 in cell proliferation assay, MIA PaCa-2 cell line): 12.9 µM | IC50 (134 cancer cell lines; Homo sapiens, MKN-45, read-out: IC50 in cell proliferation assay, MKN45 cell line (MET amplification)): 2.36 µM | IC50 (134 cancer cell lines; Homo sapiens, MOLM-13, read-out: IC50 in cell proliferation assay, MOLM-13 cell line (FLT3 ITD)): 0.004 µM | IC50 (134 cancer cell lines; Homo sapiens, MOLT-4, read-out: IC50 in cell proliferation assay, MOLT-4 cell line): 5.92 µM | IC50 (134 cancer cell lines; Homo sapiens, MV4-11, read-out: IC50 in cell proliferation assay, MV4-11 cell line (FLT3 ITD)): 0.014 µM | IC50 (134 cancer cell lines; Homo sapiens, MeWo, read-out: IC50 in cell proliferation assay, MeWo cell line): 28.1 µM
Compound: C[C@H](Nc1ncnc2nc[nH]c12)c1cc2cccc(Cl)c2c(=O)n1-c1ccccc1 [duvelisib]
IC50 (AP-1060 (ETV6-NTRK3)): 11.3 µM
